The values that follow come from US20250250287A1, “HETEROCYCLIC COMPOUNDS, COMPOSITIONS THEREOF, AND METHODS OF TREATMENT THEREWITH” (BeiGene Switzerland GmbH, priority 2022, published 2025).

In assay [1] the test system is pERK1/2(THR202/TYR204) level in SW620 cell line (KRAS G12V). The assay can be described thus: KRAS G12V pERK assay (HTRF) in SW620 cell line. The format is cell-based. The settings on record: SW620 cells, 2 hrs compound treatment. As for the experimental part: (§1) SW620 cell line was used in this study. Cells were maintained in RPMI 1640 supplemented with 10% fetal bovine serum (Thermo Fisher), 50 units/mL penicillin and streptomycin (Thermo Fisher) and kept at 37° C. in a humidified atmosphere of 5% CO2 in air. Cells were reinstated from frozen stocks that were laid down within 30 passages from the original cells purchased. 40000 cells per well were seeded into a 96-well plate and incubated overnight. Cells were treated with a 10-point dilution series. The final compound concentration is from 0 to 10 μM. After 2 hrs compound treatment, cells were lysed, and the pERK1/2(THR202/TYR204) level in the cell lysates was detected by HTRF kit (Cisbio). In brief, a total of 16 μL of cell lysate from each well of a 96-well plate was transferred to a 384-well white assay plate. Lysate from each well was incubated with 2 μL of Eu3+-cryptate (donor) labeled anti-phospho-ERK1/2 and 2 μL of D2 (acceptor) labeled anti-phospho-ERK1/2 antibodies (Cisbio) overnight in dark at room temperature. When donor and acceptor are in close proximity, excitation of the donor with laser triggers a Fluorescence Resonance Energy Transfer (FRET) towards the acceptor, which in turn fluoresces at 655 nm wavelength. FRET signals were measured using a PHERAstar FSX reader (BMG Labtech). IC50 determination was performed by fitting the curve of percent inhibition versus the log of the inhibitor concentration using Dotmatics.

The subject of assay [2] is pERK1/2(THR202/TYR204) level in AsPC-1 cell line (KRAS G12D). The assay is described as follows: KRAS G12D pERK assay (HTRF) in AsPC-1 cell line. The format is cell-based. The settings on record: Homo sapiens, ASPC1; AsPC-1 cells, 2 h compound treatment. On the procedure:
as §1, with “AsPC-1” for “SW620”, “RPMI-1640” for “RPMI 1640”, “30000” for “40000”, “h” for “hrs”, “IC50 determination was performed by fitting the curve of percent inhibition versus the log of the inhibitor concentration using Dotmatics.” left out

Take `C#Cc1c(F)ccc2cc(O)cc(-c3nc4c5c(nc(OC[C@@]67CCCN6C[C@H](F)C7)nc5c3F)N3C[C@@H](O)CC[C@H]3CO4)c12` [Example 35, (5aS,8S)-2-(8-ethynyl-7-fluoro-3-hydroxynaphthalen-1-yl)-1-fluoro-11-(((2R,7aS)-2-fluorotetrahydro-1H-pyrrolizin-7a(5H)-yl)methoxy)-5,5a,6,7,8,9-hexahydro-4-oxa-3,9a,10,12-tetraazabenzo[4,5]cyclohepta[1,2,3-de]naphthalen-8-ol]: the midpoint of inhibition in assay [1] (Homo sapiens, SW-620, 2 h), the IC50, lay at 15 nM.
Turning to `Nc1cc(Cl)c(C(F)(F)F)c(-c2nc3c4c(nc(OC[C@@]56CCCN5C[C@H](F)C6)nc4c2F)N2CCC[C@H]2CO3)c1` [Example 9, 3-chloro-5-((S)-7-fluoro-5-(((2R,7aS)-2-fluorotetrahydro-1H-pyrrolizin-7a(5H)-yl)methoxy)-2,3,11,11a-tetrahydro-1H-10-oxa-3a,4,6,9-tetraazanaphtho[1,8-e]azulen-8-yl)-4-(trifluoromethyl)aniline], the IC50 in assay [1] (Homo sapiens, SW-620, 2 h) was 890 nM.
Same read-out and setting: the same measure for `C[C@@H]1C[C@H]2COc3c(Cl)c(-c4ccc(F)c5sc(N)c(C#N)c45)c(F)c4nc(OC[C@@]56CCCN5C[C@H](F)C6)nc(c34)N2C1` [Example 28, 2-amino-4-((2R,12aS)-10-chloro-8-fluoro-6-(((2R,7aS)-2-fluorotetrahydro-1H-pyrrolizin-7a(5H)-yl)methoxy)-2-methyl-2,3,12,12a-tetrahydro-1H-pyrrolo[2′,1′:3,4][1,4]oxazepino[5,6,7-de]quinazolin-9-yl)-7-fluorobenzo[b]thiophene-3-carbonitrile]: 74 nM; for `N#Cc1c(N)sc2c(F)ccc(-c3c(Cl)c4c5c(nc(OC[C@@]67CCCN6C[C@H](F)C7)nc5c3F)N3CCC[C@H]3CO4)c12` [Example 27, 2-amino-4-((S)-10-chloro-8-fluoro-6-(((2R,7aS)-2-fluorotetrahydro-1H-pyrrolizin-7a(5H)-yl)methoxy)-2,3,12,12a-tetrahydro-1H-pyrrolo[2′,1′:3,4][1,4]oxazepino[5,6,7-de]quinazolin-9-yl)-7-fluorobenzo[b]thiophene-3-carbonitrile]: 31 nM.
Turning to `C#Cc1c(F)ccc2cc(O)cc(-c3nc4c5c(nc(OCC67CCCN6CC(F)C7)nc5c3F)N3CCC3CO4)c12` (single isomer, unassigned) [Example 18], the half-inhibitory concentration (IC50) in assay [1] is 326 nM.
As to `Nc1cc(Cl)c(C(F)(F)F)c(-c2nc3c4c(nc(OC[C@@]56CCCN5C[C@H](F)C6)nc4c2F)N2CC[C@H]2CCO3)c1` [Example 22, 3-chloro-5-((S)-6-fluoro-4-(((2R,7aS)-2-fluorotetrahydro-1H-pyrrolizin-7a(5H)-yl)methoxy)-1,10,11,11a-tetrahydro-2H-9-oxa-2a,3,5,8-tetraazacyclobuta[4,5]cycloocta[1,2,3-de]naphthalen-7-yl)-4-(trifluoromethyl)aniline], the IC50 in assay [1] (Homo sapiens, SW-620, 2 h) was found to be 466 nM.
Still for that read-out and setting: the same measure for `C#Cc1c(F)ccc2cc(O)cc(-c3cc4c5c(nc(OC[C@@]67CCCN6C[C@H](F)C7)nc5c3F)N3CC(F)(F)C[C@H]3CO4)c12` [Example 4, 5-ethynyl-6-fluoro-4-((S)-2,2,8-trifluoro-6-(((2R,7aS)-2-fluorotetrahydro-1H-pyrrolizin-7a(5H)-yl)methoxy)-2,3,12,12a-tetrahydro-1H-pyrrolo[2′,1′:3,4][1,4]oxazepino[5,6,7-de]quinazolin-9-yl)naphthalen-2-ol]: 658 nM; for `N#Cc1c(N)sc2c(F)ccc(-c3c(Cl)c4c5c(nc(OC[C@@]67CCCN6C[C@H](F)C7)nc5c3F)N3CCC[C@@H]3CCO4)c12` [Example 7, 2-amino-4-((13aR)-10-chloro-8-fluoro-6-(((2R,7aS)-2-fluorotetrahydro-1H-pyrrolizin-7a (5H)-yl)methoxy)-1,2,3,12,13,13a-hexahydropyrrolo[1′,2′:5,6][1,5]oxazocino[4,3,2-de]quinazolin-9-yl)-7-fluorobenzo[b]thiophene-3-carbonitrile]: 49 nM.
Consider `C#Cc1c(F)ccc2cc(O)cc(-c3nc4c5c(nc(OC[C@@]67CCCN6C[C@H](F)C7)nc5c3F)N3CCCC[C@H]3CO4)c12` [Example 16, 5-ethynyl-6-fluoro-4-((S)-1-fluoro-11-(((2R,7aS)-2-fluorotetrahydro-1H-pyrrolizin-7a(5H)-yl)methoxy)-5,5a,6,7,8,9-hexahydro-4-oxa-3,9a,10,12-tetraazabenzo[4,5]cyclohepta[1,2,3-d]naphthalen-2-yl)naphthalen-2-ol], for which the IC50 in assay [1] (Homo sapiens, SW-620, 2 h) is 5.9 nM; in assay [2] it was 6.3 nM.
The compound `N#Cc1c(N)sc2c(F)ccc(-c3c(Cl)c4c5c(nc(OC[C@@]67CCCN6C[C@H](F)C7)nc5c3F)N3CC[C@@H](O)C[C@H]3CO4)c12` [Example 31, 2-Amino-4-((8aS,10R)-6-chloro-4-fluoro-2-(((2R,7aS)-2-fluorotetrahydro-1H-pyrrolizin-7a(5H)-yl)methoxy)-10-hydroxy-8,8a,9,10,11,12-hexahydropyrido[2′,1′:3,4][1,4]oxazepino[5,6,7-de]quinazolin-5-yl)-7-fluorobenzo[b]thiophene-3-carbonitrile] had an IC50 in assay [1] (Homo sapiens, SW-620, 2 h) of 56 nM.
Same read-out and setting: the same measure for `Cc1cc(N)cc(-c2nc3c4c(nc(OC[C@@]56CCCN5C[C@H](F)C6)nc4c2F)N2CCC[C@@H]2CCO3)c1C(F)(F)F` [Example 12, 3-((R)-7-fluoro-5-(((2R,7aS)-2-fluorotetrahydro-1H-pyrrolizin-7a(5H)-yl)methoxy)-1,2,3,11,12,12a-hexahydro-10-oxa-3a,4,6,9-tetraazacyclopenta[4,5]cycloocta[1,2,3-de]naphthalen-8-yl)-5-methyl-4-(trifluoromethyl)aniline]: 56 nM; for `C#Cc1c(F)ccc2cc(O)cc(-c3cc4c5c(nc(OC[C@@]67CCCN6C[C@H](F)C7)nc5c3F)N3CCCCC3CCO4)c12` (stereo partly drawn) [Example 6, 5-ethynyl-6-fluoro-4-(1-fluoro-13-(((2R,7aS)-2-fluorotetrahydro-1H-pyrrolizin-7a(5H)-yl)methoxy)-6,6a,7,8,9,10-hexahydro-5H-pyrido[1′,2′:5,6][1,5]oxazocino[4,3,2-de]quinazolin-2-yl)naphthalen-2-ol]: 271 nM.
